Activity calls are given as the source filed them. The rule behind the calls is not given here.

The target in the first assay is Gag-Pol polyprotein (Human immunodeficiency virus type 1 group M subtype B (isolate HXB2)) (UniProt P04585). Put plainly: concentration-response of HIV-1 RNase H blockers – biochemical, probe assessment, dose response (AID 652). The conditions noted are these: HIV-1 RT RNase H enzymatic assay.
Turning to `Oc1ccc(-c2nc(-c3ccc(O)c(O)c3)cs2)cc1`, the half-maximal inhibitory concentration (IC50) is 2.23 µM.
Take `CN1CCN(C2=C(Cl)C(=O)N(c3ccc(Cl)c(Cl)c3)C2=O)CC1`: the IC50 was 27.1 µM.
Regarding `COc1ccc(C(=S)N(C)C)cc1OC`, the 50% inhibitory concentration (IC50) was 3.61 µM.
As to `CCCCCCn1c(SCC(=O)OC)nc2c1c(=O)[nH]c(=O)n2C`, the IC50 is 3.11 µM.
The same measure, in the same setting: for `CCOc1cccc(C=Nc2cc(C)cc(C)c2O)c1O` the value was > 50 µM (inactive); for `N#CC1=C(N)SC(N)=C(C#N)C1c1ccnc2ccccc12`, 13.7 µM; for `Fc1ccccc1CSc1nc2ncccc2[nH]1`, 9.72 µM.
Still for that read-out and setting: for `CC(C)Sc1nc(-c2cccs2)nc2c1c(=O)n(C)c(=O)n2C` the value was 5.42 µM.
Still for that read-out and setting: next, `CCOc1cc(C2C(C#N)=C(N)SC(N)=C2C#N)ccc1OCCN1CCOCC1`: 31.5 µM; `COc1ccc(-n2nc3cc(C)c(NC(=O)CC(C)C)cc3n2)cc1`: 8.06 µM; `S=C(Nc1ccccn1)c1ccccn1`: 4.96 µM.
Turning to `O=C(CCSCCC(=O)NCc1ccco1)NCc1ccco1`, the IC50 is 0.953 µM.

The assay is the same for the next values; noted with them: HIV-1 RT RNase H enzymatic assay, inhibition, at 50 µM, stronger effect = higher value.
`CCCc1nnc(NC(=O)CN2C(=O)c3ccccc3S2(=O)=O)s1`: the inhibition worked out at 75.7%.
Still for that read-out and setting: for `c1ccc2c(c1)ncn2Cc1nnc2sc(-c3ccc4c(c3)OCO4)nn12` the value was 93%; for `Cc1cc(C)c(C#N)c(=N)o1`, 83%; for `Cn1ccnc1P(=S)(c1nccn1C)N1CCOCC1`, 60%.
Same read-out and setting: next, `COc1ccc(CC(=O)Nc2ccc(-c3noc(-c4cccc(OC)c4)n3)cc2)cc1`: 85.5%; `Cc1ccc2c(SCC(=O)NCc3ccco3)nc(-c3ccc(F)cc3)nc2c1`: 79.6%; `CC1(C)Cc2[nH]c(=S)c(C#N)cc2CO1`: 71.1%.
With `Cc1ccccc1NC(=O)CSc1nc2c(c(-c3ccco3)c1C#N)CCCC2`, the inhibition is 97.2%.
The same measure, in the same setting: for `COC(=O)c1ccccc1NC(=O)c1sc(=S)n(C)c1N` the value was 101%; for `Oc1ccc(-c2nc(-c3ccc(O)c(O)c3)cs2)cc1`, 101%; for `Nc1c(C(=O)N2CCCCC2)sc(=S)n1-c1ccccc1`, 83.2%.
As to `COC(=O)N(c1ccc(OC)cc1)P1(=S)OCCC(C)O1` (centres undefined), the inhibition worked out at 87.5%.
On the same count and under the same terms, next, `Cc1cccc(C)c1NC(=O)CSCC(=O)c1ccc(O)c(O)c1`: 94.7%.
The same measure, in the same setting: for `CN1CCN(C2=C(Cl)C(=O)N(c3ccc(Cl)c(Cl)c3)C2=O)CC1` the value was 61.9%; for `Cc1ccc(-n2c(N)c(C(N)=O)sc2=S)cc1`, 83.3%.
The same measure, in the same setting: for `COc1ccc(C(=S)N(C)C)cc1OC` the value was 78.6%.
Consider `Cc1cc(C)n2c(=S)[nH]nc2n1`, for which the inhibition worked out at 71.1%.
The same measure, in the same setting: next, `CCCCC(CC)Cn1c2nc3ccccc3nc2c2c(=N)oc(C)nc21` (centres undefined): 95.5%; `Cc1ccc(-c2cc(C(=O)NC3=NCCS3)c3cc(Br)ccc3n2)o1`: 92.4%.
Still for that read-out and setting: for `Cc1nn(CCc2nc(-c3ccco3)cs2)c2[nH]c(=O)cc(C(F)(F)F)c12` the value was 97.6%; for `COc1cc(OC)c(C2CC(=O)N3CN(C)CSC3=C2C#N)cc1OC` (centres undefined), 76.1%; for `Cc1nc(-c2cccc(S(=O)(=O)N3CCOCC3)c2)cs1`, 96.4%.
On the same count and under the same terms, next, `CCCCCCn1c(SCC(=O)OC)nc2c1c(=O)[nH]c(=O)n2C`: 79.6%.
Consider `CC(=O)N(Cc1cc(=O)[nH]c2ccccc12)c1cccc(C)c1`, for which the inhibition came to 89.9%.
On the same count and under the same terms, next, `Cc1ccc(Cn2c(SCC(C)C)nc3c2c(=O)[nH]c(=O)n3C)cc1`: 91.8%; `O=c1c2ccccc2sn1-c1cc(S(=O)(=O)N2CCOCC2)ccc1N1CCOCC1`: 84.4%.
The same measure, in the same setting: next, `Cc1cc(C(=O)CSc2nnc(-c3ccc(OC(F)F)cc3)o2)c(C)n1Cc1cccs1`: 74.6%; `CCOc1cccc(C=Nc2cc(C)cc(C)c2O)c1O`: 20.5%; `Cc1ccc2c(c1C)NC(C(=O)O)C1CC=CC21` (centres undefined): 96.5%.
Consider `Cc1oc(-c2ccc(Cl)cc2)cc1-c1nn2c(-c3ccoc3C)nnc2s1`, for which the inhibition worked out at 78.4%.
On to `N#Cc1c(SCC(=O)Nc2nccs2)nc2c(c1-c1ccco1)CCCC2`, for which the inhibition is 88.9%.
Same read-out and setting: for `Cc1cc(C)c2oc(-c3ccc(Cl)c(NC(=O)c4ccc(C#N)cc4F)c3)nc2c1` the value was 91%; for `CCOC(=O)C1CCCN(C(=O)Cn2sc3nc(C)cc(C)c3c2=O)C1` (centres undefined), 69.6%; for `N#CC1=C(N)SC(N)=C(C#N)C1c1ccnc2ccccc12`, 70.4%.
The same measure, in the same setting: for `Cc1ccc(-n2nc(C)c3c2NC(=O)CSC3c2ccc3c(c2)OCO3)cc1` (centres undefined) the value was 89.4%; for `CCCc1cc(C(=O)Nc2sc(C)c(C)c2C(=O)OCC)no1`, 98%; for `Fc1ccccc1CSc1nc2ncccc2[nH]1`, 57.7%.
Regarding `CCOC(=O)c1c(NC(=O)c2cc(C3CC3)on2)sc2c1CCCC2`, the inhibition is 97.1%.
The same measure, in the same setting: next, `COc1ccccc1N1CSC2=C(C#N)C(c3ccc(SC)cc3)CC(=O)N2C1` (centres undefined): 97.1%.
Same read-out and setting: for `COc1ccc(Cn2nnnc2C(c2cccnc2)N2CCN(c3ccc(O)cc3)CC2)cc1` (centres undefined) the value was 43%.
Same read-out and setting: for `CCOC(=O)c1sc(=S)n2c1[nH]c(=O)c1ccc(C(=O)OC)cc12` the value was 99.7%; for `CC1=C(SCCC#N)S/C(=C2\SC(C)=C(SCCC#N)S2)S1`, 97.5%; for `CCOC(=O)c1sc(NC(=O)CSc2nnc(Cc3ccccc3)o2)c(C#N)c1C`, 98.3%.
On to `CC(C)Cn1c(SCC(=O)NC(=O)Nc2ccc3c(c2)OCCO3)nc2ccccc2c1=O`, for which the inhibition stood at 83.9%.
On the same count and under the same terms, next, `Clc1ccccc1-c1nn2c(-c3ccncc3)nnc2s1`: 79.3%.
Take `COC(=O)c1oc2ccc(Br)cc2c1NC(=O)c1ccccc1`: the inhibition was 94%.
Same read-out and setting: next, `CC(C)Sc1nc(-c2cccs2)nc2c1c(=O)n(C)c(=O)n2C`: 98.9%.
Still for that read-out and setting: for `COC(=O)c1ccc2c(=O)[nH]c(CN3c4ccccc4CC3C)nc2c1` (centres undefined) the value was 62.3%; for `CC1CCN(S(=O)(=O)c2ccc(NC(=O)Cn3nnc(-c4ccccc4)n3)cc2)CC1`, 61.5%.
Same read-out and setting: for `COc1ccc(C2C(C(C)=O)=C(C)N=c3s/c(=C/c4ccc5c(c4)OCO5)c(=O)n32)cc1` (centres undefined) the value was 82.2%; for `O=C(NC(=O)c1ccc(Cl)cc1)Nc1cc(N2CCCCC2)ncn1`, 97.4%; for `CCOc1cc(C2C(C#N)=C(N)SC(N)=C2C#N)ccc1OCCN1CCOCC1`, 41.5%.
With `Cc1noc(C)c1CSc1nc2cc(S(=O)(=O)N3CCOCC3)ccc2o1`, the inhibition worked out at 88.3%.
On the same count and under the same terms, next, `O=C(CSc1nc2sc3c(c2c(=O)n1-c1ccccc1)CCCC3)NCc1ccco1`: 77.8%.
The same measure, in the same setting: for `Cc1sc(-n2c(C)cc(/C=N/n3cnnc3)c2C)c(C#N)c1C` the value was 89.5%.
As for `COc1ccc(-n2nc3cc(C)c(NC(=O)CC(C)C)cc3n2)cc1`, the inhibition was determined as 93.4%.
Same read-out and setting: for `S=C(Nc1ccccn1)c1ccccn1` the value was 85.8%; for `O=C(CCSCCC(=O)NCc1ccco1)NCc1ccco1`, 98.4%.
Still for that read-out and setting: for `c1ccc(-c2ccc(-c3ccccn3)nn2)nc1` the value was 52.4%; for `CCCSc1nc2c(cnn2-c2ccc(Cl)cc2)c(=O)[nH]1`, 92.8%; for `COc1ccc(OC)c(CCNC(=O)Cn2sc3nc(C)cc(C)c3c2=O)c1`, 91.6%.
On the same count and under the same terms, for `CN1CSC2=C(C#N)C(c3cccc(OCc4ccccc4)c3)CC(=O)N2C1` (centres undefined) the value was 89.7%; for `Cc1cccc(N2CSC3=C(C#N)C(c4ccc(C)o4)CC(=O)N3C2)c1` (centres undefined), 100%.
Take `c1ccc2c(c1)nnn2Cc1nnc2sc(-c3ccc4c(c3)OCCO4)nn12`: the inhibition turned out to be 85.3%.
Same read-out and setting: for `N#Cc1cc(-c2ccccc2)nn1-c1ccccc1` the value was 99.4%.
With `CCOC(=O)c1sc(NC(=O)CSc2n[nH]c(-c3ccccc3)n2)c(C#N)c1C`, the inhibition is 101%.
On the same count and under the same terms, for `Cc1ccc(-n2c(N)c(C(=O)N3CCN(C)CC3)sc2=S)cc1` the value was 53.5%.
